We go through 34 compounds from patent US6747039B2, “Aza-benzothiopyranoindazoles with antitumor activity” (Albany Molecular Research, Inc., priority 2002, dated 2004).

A value given as a limit tells only on which side of the number the result lay.

Usually IC50 stands for the concentration at which inhibition is half-maximal. Usually GI50 stands for the concentration giving 50% growth inhibition. A low value points to greater sensitivity of the cells.

One experiment deals with HeLa S-3 cells. The experiment in a line: Inhibition of cell growth (sulforhodamine B) to determine GI50. Type of experiment: cell-based. As to conditions: Homo sapiens, HeLa S3; HeLa cells; Table 5, aza-analogs; read-out: IC50 (aza-analogs). The procedure: Growth inhibition (GI50) values were measured with HeLa S-3 cells selected for growth on plastic. The procedure was based on the protocol of Skehan et al. (Skehan, P., et al., J. Natl. Cancer Inst., 82:1107-1112 (1990), which is hereby incorporated by reference). HeLa cells were plated at 2×10^4 cells/well in 96 well plates. One day later, a control plate was fixed by addition of TCA to 5%. After five rinses with tap water, the plate was air dried and stored at 4° C. Test compounds were added to the remaining plates at 10-fold dilutions between 0.01 and 100 μM. Two days later, all plates were fixed as described above. Cells were then stained by the addition of 100 μl per well of 0.4% sulforhodamine B (SRB) in 1% acetic acid for 30 min at 4° C. Wells were then quickly rinsed 5× with acetic acid (1%) and allowed to air dry. The SRB was then solubilized by the addition of 100 μl per well of unbuffered 10 mM Tris base. Dye was quantified by measuring absorbance at 490 nm on a Molecular Devices kinetic microplate reader. Growth at each inhibitor concentration relative to the untreated control was calculated according to the following equation: percent growth=100×(T−To)/(C−To), where T was the average optical density (OD) of the test wells after 2 days of treatment, To was the average OD of the wells in the control plate on day 0 and C was the average OD of untreated wells. Plots of percent growth versus inhibitor concentration were used to determine the GI50.
The data below shown in Table 4 summarizes the in vitro cyclin/cdk inhibition constants (IC50) of HeLa Cells for the compounds of the current invention.
Consider `CCN(CC)CCNc1cccc2sc3ccncc3c(=O)c12`, for which the IC50 worked out at 3000 nM. Same read-out and setting: in the case of `CCN(CC)CCNc1ccc(CNC=O)c2sc3ccncc3c(=O)c12` it was 1000 nM; in that of `CCN(CC)CCNc1ccc(CN)c2sc3ccncc3c(=O)c12`, 700 nM; in that of `CCN(CC)CCNc1ccc(CNS(C)(=O)=O)c2sc3ccncc3c(=O)c12`, 400 nM.

For the compound `CCN(CC)CCNc1ccc(CNC(=O)OC)c2sc3ccncc3c(=O)c12`, the 50% inhibitory concentration (IC50) was 300 nM.

For the compound `CCN(CC)CCn1nc2c3c(cccc31)Sc1ccncc1-2`, the IC50 stood at 1000 nM.

`CCN(CC)CCn1nc2c3c(c(CN)ccc31)Sc1ccncc1-2` [drawing 112]: the half-inhibitory concentration (IC50) was 200 nM. Same read-out and setting: in the case of `CCN(CC)CCn1nc2c3c(c(CNC=O)ccc31)Sc1ccncc1-2` [drawing 114] it was 200 nM; in that of `CCN(CC)CCn1nc2c3c(c(CNC(=O)OC)ccc31)Sc1ccncc1-2` [drawing 116], 100 nM; in that of `CCN(CC)CCn1nc2c3c(c(CNS(C)(=O)=O)ccc31)Sc1ccncc1-2` [drawing 118], 300 nM.

`CCN(CC)CCn1nc2c3c(c(CNC(=O)OC)ccc31)Sc1ncccc1-2` [drawing 120]: the IC50 worked out at 500 nM. On the same count and under the same terms, to `CCN(CC)CCn1nc2c3c(c(CNS(C)(=O)=O)ccc31)Sc1ncccc1-2` [drawing 122] belongs 300 nM; to `CCN(CC)CCn1nc2c3c(c(CN)ccc31)Sc1ncccc1-2` [drawing 124], 200 nM; to `CCN(CC)CCn1nc2c3c(c(CNC=O)ccc31)Sc1ncccc1-2` [drawing 126], 500 nM.

The same experiment, now with this note: Homo sapiens, HeLa S3; HeLa cells; Table 5, carbocyclic congeners; read-out: IC50 (carbocyclic congeners).
On to `CCN(CC)CCNc1cccc2sc3ccccc3c(=O)c12` [reference compound], for which the IC50 is above 10000 nM. Same read-out and setting: in the case of `CCN(CC)CCNc1ccc(CNC=O)c2sc3ccccc3c(=O)c12` [reference compound] it was 3000 nM; in that of `CCN(CC)CCNc1ccc(CN)c2sc3ccccc3c(=O)c12` [reference compound], 600 nM. Consider `CCN(CC)CCn1nc2c3c(cccc31)Sc1ccccc1-2` [reference compound], for which the IC50 came out at 9000 nM.

Take `CCN(CC)CCn1nc2c3c(c(CN)ccc31)Sc1ccccc1-2` [reference compound]: the IC50 was 1000 nM. On the same count and under the same terms, in the case of `CCN(CC)CCn1nc2c3c(c(CNC=O)ccc31)Sc1ccccc1-2` [reference compound] it was 1000 nM. As to `CCN(CC)CCn1nc2c3c(c(CNC(=O)OC)ccc31)Sc1ccccc1-2` [reference compound], the half-maximal inhibitory concentration (IC50) is 3000 nM. Still for that read-out and setting: in the case of `CCN(CC)CCn1nc2c3c(c(CNS(C)(=O)=O)ccc31)Sc1ccccc1-2` [reference compound] it was 900 nM.

Staying with this experiment, now noted: Homo sapiens, HeLa S3; Table 6, comparison of nitrogen position, first compound of pair.
In the case of `CCN(CC)CCn1nc2c3c(c(C)ccc31)Sc1ccncc1-2`, the GI50 stood at 100 nM. Same read-out and setting: in the case of `CCN(CC)CCNc1ccc(C)c2sc3ccncc3c(=O)c12` it was 400 nM.

For the compound `CCN(CC)CCn1nc2c3c(c(CN)ccc31)Sc1ccncc1-2` [drawing 127], the 50% growth inhibitory concentration (GI50) turned out to be 200 nM. On the same count and under the same terms, in the case of `CCN(CC)CCn1nc2c3c(c(CNC=O)ccc31)Sc1ccncc1-2` [drawing 129] it was 50 nM; in that of `CCN(CC)CCn1nc2c3c(c(CNC(=O)OC)ccc31)Sc1ccncc1-2` [drawing 131], 100 nM. The same measure, in the same setting: in the case of `CCN(CC)CCn1nc2c3c(c(CNS(C)(=O)=O)ccc31)Sc1ccncc1-2` [drawing 133] it was 200 nM.

Still in this experiment, the particulars now being: Homo sapiens, HeLa S3; Table 6, comparison of nitrogen position, second compound of pair.
On to `CCN(CC)CCn1nc2c3c(c(C)ccc31)Sc1ncccc1-2`, for which growth was halved (GI50) at 600 nM. Same read-out and setting: in the case of `CCN(CC)CCNc1ccc(C)c2sc3ncccc3c(=O)c12` it was 3000 nM.

On to `CCN(CC)CCn1nc2c3c(c(CN)ccc31)Sc1ncccc1-2` [drawing 128], for which it took 200 nM to inhibit growth by half (GI50). As to `CCN(CC)CCn1nc2c3c(c(CNC=O)ccc31)Sc1ncccc1-2` [drawing 130], the GI50 worked out at 500 nM. The compound `CCN(CC)CCn1nc2c3c(c(CNC(=O)OC)ccc31)Sc1ncccc1-2` [drawing 132] had a GI50 of 500 nM. On the same count and under the same terms, in the case of `CCN(CC)CCn1nc2c3c(c(CNS(C)(=O)=O)ccc31)Sc1ncccc1-2` [drawing 134] it was 300 nM.
